Measured values: publication PMC7278359, “Small molecule AX-024 reduces T cell proliferation independently of CD3ϵ/Nck1 interaction, which is governed by a domain swap in the Nck1-SH3.1 domain” (The Journal of Biological Chemistry, 2020)

What was measured:
CD4 T cell proliferation = CD4 T cell proliferation by CFSE dilution, anti-CD3 stimulation; assay type: cell-based, human; details: concentrations up to 1 μM; anti-CD3, CFSE dilution, day 4, 0.3% DMSO/0.3% PBS control
Description: (§1) Figure 2. […] CD4 T cell proliferation was assessed upon stimulation with anti-CD3ϵ by CFSE dilution as a measure for cellular proliferation, analyzed on day 4. For rapamycin and AX-024–treated cells, the dashed line indicates control proliferation at a DMSO concentration of 0.2%. For CD3ϵ-derived peptides 11Rwt, 11R085, and 11Rscr, the dashed line indicates control proliferation at 0.3% DMSO, 0.3% PBS. 11Rwt has sequence R11-G3-[…], 11R085 R11-G3-Q(dK)[…], and 11Rscr R11-G3-[…](dK)PQP. A polyarginine tag is used to enable cell penetration of the peptides ([10]). The gray boxes indicate concentrations of compound leading to decreased cell viability. These values should be disregarded. Binding of peptides 11Rwt and 11R085, but not 11Rscr, to Nck-SH3.1 was confirmed by NMR spectroscopy (Fig. S1). Asterisks, p < 0.05 as determined by a repeated-measure one-way analysis of variance with Holm–Sidak's multiple-comparison test to DMSO/PBS. Dotted lines, mean DMSO/PBS values. Error bars, S.D.
(§2) Fresh human peripheral blood mononuclear cells (PBMCs) from healthy donors (n = 4) were prepared from buffy coats. CD3^+ T cells were isolated by immunomagnetic separation (negative selection, StemCell, lot 18A87710), carboxyfluorescein succinimidyl ester (CFSE)-labeled, resuspended in StemCell Immunocult^TM-XF T cell expansion medium, and treated with compounds or vehicle for 2 h at room temperature. The isolated CD3^+ T cells were stained for CD3, CD4, and CD8, and their purity was assessed by flow cytometry. Cells were then cultured in a 96-well flat-bottomed plate (10^5 cells/well), precoated for 1 h at 37 °C with 0.2 μg·ml^−1 plate-bound anti-CD3 (clone OKT3, BioLegend). […] Cells were cultured in the presence of AX-024, rapamycin, peptide 11Rwt, peptide 11R85, peptide 11Rscr (derived from Ref. [11]; see below for sequences), or vehicle for 4 days. At the end of culture, cells were stained for viability, and CFSE dilution was assessed by flow cytometry (with gating on CD4 versus CD8).

CD8 T cell proliferation = CD8 T cell proliferation by CFSE dilution; assay type: cell-based, human; details: concentrations low enough to avoid cytotoxic effects; data not shown
Description: as §2

CD4 T cell = assay: Cytotoxicity / viability of CD4 T cells in proliferation assay; assay type: cell-based, human; details: 4 days, decreased cell viability (gray boxes in Fig. 2)
Description: as §1, §2

Nck1-SH3.1 [1] = biological target: T1, Nck1-SH3.1 (Homo sapiens, UniProt P16333); assay: NMR binding of poly-Arg CD3ϵ-derived peptides to Nck1-SH3.1; details: Fig. S1
T1 construct: His10-Avi-TEV-Nck1-SH3.1 (residues 1–61, MM 11,847 Da) was biotinylated and immobilized via streptavidin; made in house; host or cells: Escherichia coli BL21 (DE3)
Description: NMR spectra were recorded on a Bruker 600-MHz Avance NEO spectrometer equipped with a cryogenic QCI probe head at 27 °C in 25 mM […], 150 mM NaCl. The Topspin 4.0 software (Bruker, Fällanden) was used for spectrometer operation and data processing. For ^1H ligand-observed measurements, a relaxation filtered pulse sequence utilizing a spinlock of 50 ms was applied. 1D spectra were acquired with 128 scans, a sweep width of 26 ppm, and an acquisition time of 2 s. 2D ^1H-^15N HSQC spectra with natural ^15N isotope abundance were recorded over 72 h with a spectral width of 16 ppm and 35 ppm in the proton and nitrogen dimensions, respectively, with 256 increments (complex) and 1000 scans per increment. A relaxation delay of 1 s was used between scans. For the DOSY measurements (reviewed in Ref. [51]), the Bruker pulse sequence ledbpgp2s with a diffusion delay of 50 ms and a gradient length of 600 μs was used. The gradient strength was varied from 5 to 95% to record 16 increments of 512 scans with a sweep width of 18 ppm and a relaxation delay of 1 s.
Samples for ligand-observed measurements were prepared in 25 mM sodium phosphate buffer, pH 6.5, 150 mM NaCl. One sample contained 50 μM AX-024, and the other contained 50 μM CD3ϵ peptide.

Nck1-SH3.1 [2] = biological target: T1, Nck1-SH3.1; assay: SPR binding to immobilized Nck1-SH3.1; details: SPR, peptide up to 200 μM, Nck1-SH3.1 1260 RU, single titration, qualitative
Description: SPR experiments were conducted on a T200 Biacore instrument (GE Healthcare, Uppsala, Sweden) at 20 °C in 10 mM HEPES/NaOH, pH 7.8, 150 mM NaCl, 1 mM TCEP. […] Streptavidin is immobilized on the CAP sensor by way of double-strand DNA formation. A ssDNA is covalently coupled to the sensor surface, and a complementary DNA strand, covalently linked to streptavidin, is hybridized. To regenerate the surface, the DNA duplex is dissociated by washing with high-ionic strength solution. […] The reference channel for binding studies contained the same streptavidin-coated surface blocked with biotin.
Five replicates were performed for each CD3ϵ concentration (Table S1), whereas for the qualitative assessment of the APVA variant, only a single titration was performed.
SPR equilibrium signals were corrected for the signal in the reference channel and buffer contributions. The resulting SPR amplitudes were plotted as a function of peptide concentration, and a simple binding equation describing a Langmuir adsorption isotherm was fit to the data (GraphPad Prism) to extract the equilibrium dissociation constant Kd. (Eq. 1) RU=RUmax·[peptide]/[peptide]+Kd

| binding to Nck1-SH3.1 by NMR (Nck1-SH3.1 [1]) | fold weaker binding of APVA mutant than WT CD3ϵ peptide (Nck1-SH3.1 [2]) | Substance | inhibition of CD4 T cell proliferation by peptides (CD4 T cell proliferation) | effect on CD8 T cell proliferation (CD8 T cell proliferation) | concentration at which peptides were cytotoxic (CD4 T cell) |
| --- | --- | --- | --- | --- | --- |
| does not | – | R11-G3-PKVRECPDYK(dK)PQP [11Rscr, scrambled peptide with the same composition as 11R085 but lacking the canonical PRS] | none of the peptides inhibited CD4 T cell proliferation | did not affect CD8 T cell proliferation | exceeding 6 μM |
| bind to Nck1-SH3.1 | – | R11-G3-Q(dK)KECPPPVPKRDY [11R085, R11-G3-tagged cell-penetrating CD3ϵ-derived peptide] | none of the peptides inhibited CD4 T cell proliferation | did not affect CD8 T cell proliferation | exceeding 6 μM |
| bind to Nck1-SH3.1 | – | R11-G3-RGYNKERPPPVPNPDY [11Rwt, R11-G3-tagged cell-penetrating CD3ϵ-derived peptide] | none of the peptides inhibited CD4 T cell proliferation | did not affect CD8 T cell proliferation | exceeding 6 μM |
| – | ~10 -fold | RGQNKERPAPVANPDY-NH2 [APVA variant of CD3ϵ peptide] | – | – | – |
